One block for each molecule: values may come before it.
Tests used:
Assay type in all cases: functional, cell-based; call rule not given here
[1] = target: T1, P2Y purinoceptor 6 (Homo sapiens, UniProt Q15077); assay: Agonist activity at human P2Y6 receptor expressed in human 1321N1 cells assessed as calcium elevation by fura2/AM assay
[2] = target: T2, P2Y purinoceptor 2 (Homo sapiens, UniProt P41231); assay: Agonist activity at human P2Y2 receptor expressed in human 1321N1 cells assessed as calcium elevation by fura2/AM assay
[3] = target: T3, P2Y purinoceptor 4 (Homo sapiens, UniProt P51582); assay: Agonist activity at human P2Y4 receptor expressed in human 1321N1 cells assessed as calcium elevation by fura2/AM assay
[4] = target: T1, P2Y purinoceptor 6; assay: Agonist activity at human P2Y6 receptor expressed in human 1321N1 cells assessed as calcium elevation at 10 uM by fura2/AM assay
[5] = target: T3, P2Y purinoceptor 4; assay: Agonist activity at human P2Y4 receptor expressed in human 1321N1 cells assessed as concentration required to 50% maximal response of compound 3 at 10 uM by fura2/AM assay
[6] = target: T3, P2Y purinoceptor 4; assay: Agonist activity at human P2Y4 receptor expressed in human 1321N1 cells assessed as calcium elevation at 10 uM by fura2/AM assay
[7] = target: T1, P2Y purinoceptor 6; assay: Agonist activity at human P2Y6 receptor expressed in human 1321N1 cells assessed as concentration required to 50% maximal response of compound 3 at 10 uM by fura2/AM assay
[8] = target: T2, P2Y purinoceptor 2; assay: Agonist activity at human P2Y2 receptor expressed in human 1321N1 cells assessed as concentration required to 50% maximal response of compound 3 at 10 uM by fura2/AM assay
[9] = target: T2, P2Y purinoceptor 2; assay: Agonist activity at human P2Y2 receptor expressed in human 1321N1 cells assessed as calcium elevation at 10 uM by fura2/AM assay
[10] = target: P2Y purinoceptor 2 (Mus musculus, UniProt P35383); assay: Agonist activity at mouse P2Y2 receptor expressed in human 1321N1 cells assessed as calcium elevation by fura2/AM assay
Chain of P2Y purinoceptor 2 (Mus musculus, UniProt P35383) (P35383 whole entry): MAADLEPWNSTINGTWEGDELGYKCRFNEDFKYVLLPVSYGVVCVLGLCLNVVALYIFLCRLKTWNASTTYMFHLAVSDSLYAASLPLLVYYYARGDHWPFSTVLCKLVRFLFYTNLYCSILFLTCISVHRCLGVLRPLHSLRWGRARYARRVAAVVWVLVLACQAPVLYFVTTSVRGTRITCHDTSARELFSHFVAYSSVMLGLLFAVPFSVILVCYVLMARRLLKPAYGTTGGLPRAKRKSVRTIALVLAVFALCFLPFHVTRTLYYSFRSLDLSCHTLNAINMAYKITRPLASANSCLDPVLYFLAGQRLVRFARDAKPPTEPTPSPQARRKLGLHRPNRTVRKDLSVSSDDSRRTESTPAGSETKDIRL

T1 sequence (Q15077 whole entry): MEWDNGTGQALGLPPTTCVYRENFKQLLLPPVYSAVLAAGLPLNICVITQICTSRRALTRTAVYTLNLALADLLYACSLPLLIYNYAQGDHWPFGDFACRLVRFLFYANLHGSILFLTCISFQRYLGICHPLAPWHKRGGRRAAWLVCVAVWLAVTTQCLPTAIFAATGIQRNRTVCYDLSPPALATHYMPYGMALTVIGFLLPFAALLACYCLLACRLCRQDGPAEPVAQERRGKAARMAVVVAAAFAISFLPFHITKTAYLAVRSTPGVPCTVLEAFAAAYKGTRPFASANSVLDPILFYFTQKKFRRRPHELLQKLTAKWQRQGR
T3 sequence (P51582 whole entry): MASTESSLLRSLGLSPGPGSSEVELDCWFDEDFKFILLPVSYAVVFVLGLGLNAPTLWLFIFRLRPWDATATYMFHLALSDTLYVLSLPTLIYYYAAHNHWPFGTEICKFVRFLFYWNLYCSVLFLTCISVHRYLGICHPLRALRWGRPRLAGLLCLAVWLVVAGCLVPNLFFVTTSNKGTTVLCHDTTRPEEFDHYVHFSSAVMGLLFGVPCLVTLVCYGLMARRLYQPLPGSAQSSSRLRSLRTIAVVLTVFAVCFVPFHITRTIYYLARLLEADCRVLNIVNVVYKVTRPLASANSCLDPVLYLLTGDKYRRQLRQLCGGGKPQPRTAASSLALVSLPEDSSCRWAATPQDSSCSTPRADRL
T2 sequence (P41231 whole entry): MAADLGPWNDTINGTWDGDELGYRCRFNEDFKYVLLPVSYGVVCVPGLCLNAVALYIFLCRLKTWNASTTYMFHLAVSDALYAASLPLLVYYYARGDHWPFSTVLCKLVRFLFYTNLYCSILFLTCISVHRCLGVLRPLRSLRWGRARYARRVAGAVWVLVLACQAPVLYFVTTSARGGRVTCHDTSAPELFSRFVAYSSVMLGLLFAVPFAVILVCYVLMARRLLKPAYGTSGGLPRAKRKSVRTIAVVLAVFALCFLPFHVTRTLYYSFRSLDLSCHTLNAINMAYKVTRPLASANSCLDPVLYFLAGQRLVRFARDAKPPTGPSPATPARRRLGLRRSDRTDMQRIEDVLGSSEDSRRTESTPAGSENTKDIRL

Structure (SMILES): COc1cc(=O)[nH]c(=O)n1[C@@H]1O[C@H](COP(=O)(O)OP(=O)(O)OP(=O)(O)O)[C@@H](O)[C@H]1O
EC50 ([1]; 1321-n1): Not Active
EC50 ([2]; read-out: EC50): 3000 nM
EC50 ([3]; 1321-n1): Not Active

Structure (SMILES): COc1cn([C@@H]2O[C@H](COP(=O)(O)OP(=O)(O)OP(=O)(O)O)[C@@H](O)[C@H]2O)c(=O)[nH]c1=O
EC50 ([1]; read-out: EC50): 900 nM
EC50 ([2]; read-out: EC50): 2000 nM
EC50 [6]: Active

Structure (SMILES): Nc1ccn([C@H]2C[C@H](O)[C@@H](COP(=O)(O)OP(=O)(O)OP(=O)(O)OP(=O)(O)OC[C@H]3O[C@@H](n4ccc(=O)[nH]c4=O)[C@H](O)[C@@H]3O)O2)c(=O)n1 [DENUFOSOL]
EC50 ([2]; read-out: EC50): 220 nM

Structure (SMILES): O=c1ccn([C@@H]2O[C@H](COP(=O)(O)OP(=O)(O)OP(=O)(O)O)[C@@H](O)[C@H]2O)c(=O)[nH]1 [URIDINE TRIPHOSPHATE]
EC50 ([2]; read-out: EC50): 100 nM
EC50 ([3]; read-out: EC50): 0.5 µM

Structure (SMILES): CSc1cc(=O)[nH]c(=O)n1[C@@H]1O[C@H](COP(=O)(O)OP(=O)(O)OP(=O)(O)O)[C@@H](O)[C@H]1O
EC50 ([1]; 1321-n1): Not Active
EC50 ([3]; 1321-n1): Not Active
EC50 [9]: Active

Structure (SMILES): CCc1cn([C@@H]2O[C@H](COP(=O)(O)OP(=O)(O)OP(=O)(O)O)[C@@H](O)[C@H]2O)c(=O)[nH]c1=O
EC50 [10]: 99 µM

Structure (SMILES): O=c1[nH]c(=O)n([C@@H]2O[C@H](COP(=O)(O)OP(=O)(O)S)[C@@H](O)[C@H]2O)cc1Br (stereo partly drawn)
EC50 ([1]; read-out: EC50): 47 nM

Structure (SMILES): O=c1ccn([C@]23C[C@H]2[C@H](COP(=O)(O)OP(=O)(O)O)[C@@H](O)[C@H]3O)c(=O)[nH]1
EC50 ([1]; read-out: EC50): 230 nM

Structure (SMILES): O=c1ccn([C@@H]2O[C@H](COP(=O)(O)OP(=O)(O)OP(=O)(O)OP(=O)(O)OC[C@H]3O[C@@H](n4ccc(=O)[nH]c4=O)[C@H](O)[C@@H]3O)C3OC(Cc4ccccc4)OC32)c(=O)[nH]1 (stereo partly drawn)
EC50 ([1]; read-out: EC50): 140 nM

Structure (SMILES): O=c1cc(Sc2ccccc2)n([C@@H]2O[C@H](COP(=O)(O)OP(=O)(O)OP(=O)(O)O)[C@@H](O)[C@H]2O)c(=O)[nH]1
EC50 ([1]; 1321-n1): Not Active
EC50 ([2]; 1321-n1): Not Active
EC50 ([3]; 1321-n1): Not Active

Further lines, results first:

EC50 ([1]; read-out: EC50): 800 nM
EC50 ([2]; read-out: EC50): 2060 nM
EC50 ([3]; read-out: EC50): 10 µM
Structure (SMILES): O=c1[nH]c(=O)n([C@@H]2O[C@H](COP(=O)(O)OP(=O)(O)OP(=O)(O)O)[C@@H](O)[C@H]2O)cc1Br

EC50 ([2]; read-out: EC50): 6000 nM
EC50 [4]: Active
EC50 [5]: 600 nM
Structure (SMILES): O=c1[nH]c(=O)n([C@@H]2O[C@H](COP(=O)(O)OP(=O)(O)OP(=O)(O)O)[C@@H](O)[C@H]2O)cc1F

EC50 [7]: 10 µM
EC50 [8]: 2000 nM
EC50 [5]: 3500 nM
Structure (SMILES): O=c1[nH]c(=O)n([C@@H]2O[C@H](COP(=O)(O)OP(=O)(O)O)[C@@H](O)[C@H]2O)cc1F

EC50 ([1]; read-out: EC50): 80 nM
EC50 ([2]; 1321-n1): Not Active
EC50 ([3]; read-out: EC50): ≥ 20 µM
Structure (SMILES): COc1cn([C@@H]2O[C@H](COP(=O)(O)OP(=O)(O)O)[C@@H](O)[C@H]2O)c(=O)[nH]c1=O

EC50 ([1]; read-out: EC50): 140 nM
Structure (SMILES): O=c1ccn([C@@H]2O[C@H](COP(=O)(O)OP(=O)(O)O)[C@@H](O)[C@H]2O)c(=O)[nH]1 [URIDINE_DIPHOSPHATE]

EC50 ([1]; read-out: EC50): 13 nM
Structure (SMILES): O=c1[nH]c(=O)n([C@@H]2O[C@H](COP(=O)(O)OP(=O)(O)O)[C@@H](O)[C@H]2O)cc1I
